From ChEMBL document CHEMBL1201862, “PubChem BioAssay data set” (2004)
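Cultured in 96-well plates, cells were exposed to test compound for 48 hours across five concentrations. GI50: concentration for 50% inhibition of growth.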 Active and inactive are the calls of the source. Cut-off read from the data, not from the text of the source: active = GI50 up to about 1.1 µM and inactive = higher.

How the values were obtained:
Assay in all cases: DTP human tumour cell line panel, 48 h
786-0 = tested on: 786-0
A549 = tested on: A549
ACHN = tested on: ACHN
BT-549 = tested on: BT-549
CAKI-1 = tested on: CAKI-1
CCRF-CEM = tested on: CCRF-CEM
COLO 205 = tested on: COLO 205
DU-145 = tested on: DU-145
EKVX = tested on: EKVX
HCC 2998 = tested on: HCC 2998
HCT-116 = tested on: HCT-116
HCT-15 = tested on: HCT-15
HL-60 = tested on: HL-60
HOP-62 = tested on: HOP-62
HOP-92 = tested on: HOP-92
HT-29 = tested on: HT-29
Hs-578T = tested on: Hs-578T
IGROV-1 = tested on: IGROV-1
K562 = tested on: K562
KM12 = tested on: KM12
LOX IMVI = tested on: LOX IMVI
M14 = tested on: M14
MCF7 = tested on: MCF7
MDA-MB-231 = tested on: MDA-MB-231
MDA-MB-435 = tested on: MDA-MB-435
MDA-N = tested on: MDA-N
MOLT-4 = tested on: MOLT-4
Malme-3M = tested on: Malme-3M
NCI-H226 = tested on: NCI-H226
NCI-H23 = tested on: NCI-H23
NCI-H460 = tested on: NCI-H460
NCI-H522 = tested on: NCI-H522
NCI/ADR-RES = tested on: NCI/ADR-RES
OVCAR-3 = tested on: OVCAR-3
OVCAR-4 = tested on: OVCAR-4
OVCAR-5 = tested on: OVCAR-5
OVCAR-8 = tested on: OVCAR-8
PC-3 = tested on: PC-3
RXF 393 = tested on: RXF 393
SF-268 = tested on: SF-268
SF-295 = tested on: SF-295
SF-539 = tested on: SF-539
SK-MEL-28 = tested on: SK-MEL-28
SK-MEL-2 = tested on: SK-MEL-2
SK-MEL-5 = tested on: SK-MEL-5
SK-OV-3 = tested on: SK-OV-3
SN12C = tested on: SN12C
SNB-19 = tested on: SNB-19
SNB-75 = tested on: SNB-75
SR = tested on: SR
SW-620 = tested on: SW-620
T47D = tested on: T47D
TK-10 = tested on: TK-10
U-251 = tested on: U-251
UACC-257 = tested on: UACC-257
UACC-62 = tested on: UACC-62
UO-31 = tested on: UO-31
RPMI-8226 = tested on: RPMI-8226

`CC(C)(C)OC(=O)N1CCC2(C)CC(=O)CC=C12` (configuration not stated) was tested, and the GI50 (786-0) was > 100 µM (inactive), the GI50 (A549) was > 100 µM (inactive) and the GI50 (ACHN) was > 100 µM (inactive). The GI50 (BT-549) was > 100 µM (inactive), the GI50 (CAKI-1) was > 100 µM (inactive) and the GI50 (CCRF-CEM) was 27.2 µM (inactive). The GI50 (COLO 205) was > 100 µM (inactive), the GI50 (DU-145) was > 100 µM (inactive) and the GI50 (EKVX) was > 100 µM (inactive). For the same compound, the GI50 (HCC 2998) was > 100 µM (inactive), the GI50 (HCT-116) was 81.8 µM (inactive) and the GI50 (HCT-15) was greater than 100 µM. For the same compound, the GI50 (HL-60) was > 100 µM (inactive), the GI50 (HOP-62) was > 100 µM (inactive) and the GI50 (HOP-92) was > 100 µM (inactive). The GI50 (HT-29) was > 100 µM (inactive), the GI50 (Hs-578T) was > 100 µM (inactive) and the GI50 (IGROV-1) was > 100 µM (inactive). For the same compound, the GI50 (K562) was > 100 µM (inactive), the GI50 (KM12) was > 100 µM (inactive) and the GI50 (LOX IMVI) was > 100 µM (inactive). For the same compound, the GI50 (M14) was > 100 µM (inactive), the GI50 (MCF7) was > 100 µM (inactive) and the GI50 (MDA-MB-231) was > 100 µM (inactive). The GI50 (MDA-MB-435) was > 100 µM (inactive), the GI50 (MDA-N) was > 100 µM (inactive) and the GI50 (MOLT-4) was > 100 µM (inactive). For the same compound, the GI50 (Malme-3M) was > 100 µM (inactive), the GI50 (NCI-H226) was > 100 µM (inactive) and the GI50 (NCI-H23) was > 100 µM (inactive). The GI50 (NCI-H460) was > 100 µM (inactive), the GI50 (NCI-H522) was 45.4 µM (inactive) and the GI50 (NCI/ADR-RES) was > 100 µM (inactive). The GI50 (OVCAR-3) was > 100 µM (inactive), the GI50 (OVCAR-4) was > 100 µM (inactive) and the GI50 (OVCAR-5) was > 100 µM (inactive). For the same compound, the GI50 (OVCAR-8) was > 100 µM (inactive), the GI50 (PC-3) was > 100 µM (inactive) and the GI50 (RXF 393) was > 100 µM (inactive). The GI50 (SF-268) was > 100 µM (inactive), the GI50 (SF-295) was > 100 µM (inactive) and the GI50 (SF-539) was > 100 µM (inactive). For the same compound, the GI50 (SK-MEL-28) was > 100 µM (inactive), the GI50 (SK-MEL-2) was > 100 µM (inactive) and the GI50 (SK-MEL-5) was > 100 µM (inactive). The GI50 (SK-OV-3) was > 100 µM (inactive), the GI50 (SN12C) was > 100 µM (inactive) and the GI50 (SNB-19) was > 100 µM (inactive). For the same compound, the GI50 (SNB-75) was > 100 µM (inactive), the GI50 (SR) was 72.4 µM (inactive) and the GI50 (SW-620) was 67 µM (inactive). The GI50 (T47D) was > 100 µM (inactive), the GI50 (TK-10) was > 100 µM (inactive) and the GI50 (U-251) was > 100 µM (inactive). The GI50 (UACC-257) was 28.2 µM (inactive), the GI50 (UACC-62) was > 100 µM (inactive) and the GI50 (UO-31) was > 100 µM (inactive).
In the case of `CCOP(=O)(OCC)C(C)(C)OC(=O)NC#N`, the GI50 (786-0) is reported as > 100 µM (inactive), the GI50 (A549) is reported as > 100 µM (inactive) and the GI50 (ACHN) is reported as > 100 µM (inactive). The GI50 (BT-549) was 79.6 µM (inactive), the GI50 (CAKI-1) was > 100 µM (inactive) and the GI50 (CCRF-CEM) was > 100 µM (inactive). For the same compound, the GI50 (COLO 205) was > 100 µM (inactive), the GI50 (DU-145) was > 100 µM (inactive) and the GI50 (EKVX) was > 100 µM (inactive). The GI50 (HCC 2998) was > 100 µM (inactive), the GI50 (HCT-116) was > 100 µM (inactive) and the GI50 (HCT-15) was greater than 100 µM. The GI50 (HL-60) was > 100 µM (inactive), the GI50 (HOP-62) was > 100 µM (inactive) and the GI50 (HOP-92) was > 100 µM (inactive). For the same compound, the GI50 (HT-29) was > 100 µM (inactive), the GI50 (Hs-578T) was > 100 µM (inactive) and the GI50 (IGROV-1) was > 100 µM (inactive). For the same compound, the GI50 (K562) was > 100 µM (inactive), the GI50 (KM12) was > 100 µM (inactive) and the GI50 (LOX IMVI) was > 100 µM (inactive). The GI50 (M14) was > 100 µM (inactive), the GI50 (MCF7) was > 100 µM (inactive) and the GI50 (MDA-MB-231) was > 100 µM (inactive). The GI50 (MDA-MB-435) was > 100 µM (inactive), the GI50 (MDA-N) was > 100 µM (inactive) and the GI50 (MOLT-4) was > 100 µM (inactive). For the same compound, the GI50 (Malme-3M) was > 100 µM (inactive), the GI50 (NCI-H226) was > 100 µM (inactive) and the GI50 (NCI-H23) was > 100 µM (inactive). For the same compound, the GI50 (NCI-H460) was > 100 µM (inactive), the GI50 (NCI/ADR-RES) was > 100 µM (inactive) and the GI50 (OVCAR-3) was > 100 µM (inactive). The GI50 (OVCAR-4) was > 100 µM (inactive), the GI50 (OVCAR-5) was > 100 µM (inactive) and the GI50 (OVCAR-8) was > 100 µM (inactive). The GI50 (PC-3) was > 100 µM (inactive), the GI50 (RPMI-8226) was > 100 µM (inactive) and the GI50 (RXF 393) was > 100 µM (inactive). The GI50 (SF-268) was > 100 µM (inactive), the GI50 (SF-295) was > 100 µM (inactive) and the GI50 (SF-539) was > 100 µM (inactive). The GI50 (SK-MEL-28) was > 100 µM (inactive), the GI50 (SK-MEL-2) was > 100 µM (inactive) and the GI50 (SK-MEL-5) was > 100 µM (inactive). The GI50 (SK-OV-3) was > 100 µM (inactive), the GI50 (SN12C) was > 100 µM (inactive) and the GI50 (SNB-19) was > 100 µM (inactive). The GI50 (SNB-75) was > 100 µM (inactive), the GI50 (SR) was > 100 µM (inactive) and the GI50 (SW-620) was > 100 µM (inactive). For the same compound, the GI50 (T47D) was > 100 µM (inactive), the GI50 (TK-10) was > 100 µM (inactive) and the GI50 (U-251) was > 100 µM (inactive). For the same compound, the GI50 (UACC-257) was > 100 µM (inactive), the GI50 (UACC-62) was > 100 µM (inactive) and the GI50 (UO-31) was > 100 µM (inactive).
For `COCCCN1C(=O)C2c3[nH]c4ccccc4c3C3CCC(C(C)(C)C)CC3C2C1=O` (configuration not stated), the GI50 (786-0) was 22.7 µM (inactive), the GI50 (A549) was 32.6 µM (inactive) and the GI50 (ACHN) was 27.4 µM (inactive). The GI50 (BT-549) was 20.5 µM (inactive), the GI50 (CAKI-1) was 29.5 µM (inactive) and the GI50 (CCRF-CEM) was 22.6 µM (inactive). For the same compound, the GI50 (COLO 205) was > 10 µM (inactive), the GI50 (DU-145) was 58.9 µM (inactive) and the GI50 (EKVX) was 34.4 µM (inactive). For the same compound, the GI50 (HCC 2998) was 20.3 µM (inactive), the GI50 (HCT-116) was 19.8 µM (inactive) and the GI50 (HCT-15) was 19.8 µM. For the same compound, the GI50 (HL-60) was 23.4 µM (inactive), the GI50 (HOP-62) was 22.4 µM (inactive) and the GI50 (HT-29) was 15.3 µM (inactive). For the same compound, the GI50 (Hs-578T) was 32.1 µM (inactive), the GI50 (IGROV-1) was > 100 µM (inactive) and the GI50 (K562) was > 10 µM (inactive). For the same compound, the GI50 (KM12) was 20.7 µM (inactive), the GI50 (M14) was 18.4 µM (inactive) and the GI50 (MCF7) was 20.6 µM (inactive). The GI50 (MDA-MB-231) was 21.7 µM (inactive), the GI50 (MDA-MB-435) was 29.7 µM (inactive) and the GI50 (MDA-N) was 35.6 µM (inactive). For the same compound, the GI50 (MOLT-4) was 24.7 µM (inactive), the GI50 (NCI-H226) was 25.4 µM (inactive) and the GI50 (NCI-H23) was 27 µM (inactive). The GI50 (NCI-H460) was 18.7 µM (inactive), the GI50 (NCI-H522) was 21.7 µM (inactive) and the GI50 (NCI/ADR-RES) was > 10 µM (inactive). For the same compound, the GI50 (OVCAR-3) was 17.4 µM (inactive), the GI50 (OVCAR-4) was 31.5 µM (inactive) and the GI50 (OVCAR-8) was 35.5 µM (inactive). For the same compound, the GI50 (PC-3) was 19.1 µM (inactive), the GI50 (RPMI-8226) was 22.6 µM (inactive) and the GI50 (RXF 393) was 21.3 µM (inactive). The GI50 (SF-268) was 43.7 µM (inactive), the GI50 (SF-295) was 24.1 µM (inactive) and the GI50 (SF-539) was 27.4 µM (inactive). The GI50 (SK-MEL-28) was 38 µM (inactive), the GI50 (SK-MEL-5) was 27.4 µM (inactive) and the GI50 (SK-OV-3) was > 100 µM (inactive). The GI50 (SN12C) was 21.4 µM (inactive), the GI50 (SNB-19) was 33 µM (inactive) and the GI50 (SNB-75) was 47.6 µM (inactive). The GI50 (SR) was 25.4 µM (inactive), the GI50 (SW-620) was 30.6 µM (inactive) and the GI50 (T47D) was 48.4 µM (inactive). The GI50 (TK-10) was 59.3 µM (inactive), the GI50 (U-251) was 17.7 µM (inactive) and the GI50 (UACC-257) was 27.7 µM (inactive). The GI50 (UACC-62) was > 10 µM (inactive) and the GI50 (UO-31) was 54.3 µM (inactive).
